# Data as given in paper PMC8218751, “Visualizing Borrelia burgdorferi Infection Using a Small-Molecule Imaging Probe” (Journal of Clinical Microbiology, 2021).
# “Also recorded” adds a separate entry of the source.
# Assays:
# [1] = biological target: T. denticola HtpG (Treponema denticola, UniProt P61188); experiment: FLECS assay, elution of GFP-HtpG from ATP Sepharose; format: binding; settings: in words
# Experimental: Escherichia coli (strain BL21/DE3) genomic DNA was isolated from a lab culture generated from the cloning/expression bacterium (ThermoFisher catalog no. EC0114) by overnight proteinase K digestion at 56°C, high-salt clarification, and ethanol precipitation. B. burgdorferi (strain B31) and Treponema denticola genomic DNAs were obtained from the American Type Culture Collection (Manassas, VA; ATCC 35210 and 35405, respectively). Human Hsp90-alpha sequences were derived from cDNA generated from total mRNA of the human breast epithelial line, MCF10A. HtpG DNA sequences were PCR cloned from these DNAs using primers designed to allow in-frame cloning with GFP in the isopropyl-β-D-thiogalactopyranoside (IPTG)-inducible bacterial expression vector. 1GFP (pET His6 GFP TEV [tobacco etch virus] LIC [ligation-independent cloning] vector) was a gift from Scott Gradia (Addgene plasmid #29663; http://n2t.net/addgene:29663; RRID:Addgene_29663). Fusion protein cloning was done using the ligation-independent cloning procedure via single-nucleotide T4 DNA polymerase treatment of vector and purified PCR products followed by annealing of complementary single-strand ends before transformation into DH5 E. coli. Proper fusion junctions and fidelity of cloned inserts were confirmed by sequencing, and then the plasmid was transformed into E. coli BL21(DE3) for protein expression. Fusion protein synthesis was induced by incubation with 1 mM IPTG or autoinduction ([17]). Production of GFP-HtpG/Hsp90 was confirmed by identification of GFP and HtpG peptides with matrix-assisted laser desorption ionization (MALDI) using an AB Sciex 5800 time of flight (TOF)/TOF mass spectrometer in the induced band identified on an SDS-PAGE gel. To complete binding curves, several liters of induced cultures was generated, pelleted with centrifugation of 3,150 × g for 15 min, flash frozen in liquid nitrogen, and then stored at −80°C until subsequent fluorescent-linked enzyme chemoproteomic strategy (FLECS) analysis.
# γ-linked ATP Sepharose matrix was generated as described previously by the Haystead lab ([18]). BL21 bacterial pellets expressing GFP-fusion proteins of E. coli, B. burgdorferi, and T. denticola HtpGs and human Hsp90 were lysed with B-PER complete bacterial protein extraction reagent (Thermo Scientific catalog number 89821) and centrifuged at 96,000 relative centrifugal force (RCF) (Beckman Coulter type 45 Ti fixed-angle rotor) to pellet insoluble BL21 material. The clarified lysate was added to a column containing ATP-bound Sepharose. The column was washed with low-salt buffer (150 mM NaCl, 25 mM HEPES, pH 7.4, 1 mM dithiothreitol [DTT], and 60 mM MgCl2), followed by high-salt buffer (1 M NaCl, 25 mM HEPES, pH 7.4, 1 mM DTT, 0.1% IGEPAL, and 60 mM MgCl2) and once again low-salt buffer to remove unbound protein. Next, the resin with bound proteins (50 μl) was transferred to a 0.2-μm polyvinylidene fluoride filter 96-well plate (Corning) sitting on top of a black flat-bottomed 96-well catch plate (Corning). Small molecules or ATP was added to each well (50 μl), and the plates were centrifuged using an Eppendorf 5810 centrifuge at 1,100 rpm (220 RCF) for 1 min. The eluted proteins were measured in a fluorescent plate reader to detect the GFP. Some compounds are autofluorescent, and so to confirm fusion protein elution, samples were analyzed by classic SDS-PAGE methods followed by silver staining and MALDI mass spectrometry using a AB Sciex 5800 TOF/TOF mass spectrometer.
# Subtle single amino acid differences are present within the catalytic clefts of these proteins, especially between residues that contact the nucleotide. […] We therefore reasoned that these differences may be sufficient to design small molecules that can similarly discriminate HtpG of stealth organisms. To test this hypothesis, we utilized a fluorescent-linked enzyme chemoproteomic strategy (FLECS) assay to test known Hsp90 inhibitors ([18]) for binding to various HtpG constructs. […]
# [2] = biological target: human Hsp90 (Homo sapiens, UniProt P07900); experiment: FLECS assay, elution of GFP-Hsp90 from ATP Sepharose; format: binding; parameters: His6 (N); made in house; host or cells: E. coli BL21(DE3); settings: in words
# Experimental: Escherichia coli (strain BL21/DE3) genomic DNA was isolated from a lab culture generated from the cloning/expression bacterium (ThermoFisher catalog no. EC0114) by overnight proteinase K digestion at 56°C, high-salt clarification, and ethanol precipitation. […] Human Hsp90-alpha sequences were derived from cDNA generated from total mRNA of the human breast epithelial line, MCF10A. HtpG DNA sequences were PCR cloned from these DNAs using primers designed to allow in-frame cloning with GFP in the isopropyl-β-D-thiogalactopyranoside (IPTG)-inducible bacterial expression vector. […] Fusion protein cloning was done using the ligation-independent cloning procedure via single-nucleotide T4 DNA polymerase treatment of vector and purified PCR products followed by annealing of complementary single-strand ends before transformation into DH5 E. coli. […] Fusion protein synthesis was induced by incubation with 1 mM IPTG or autoinduction ([17]).
# γ-linked ATP Sepharose matrix was generated as described previously by the Haystead lab ([18]). […] The clarified lysate was added to a column containing ATP-bound Sepharose. The column was washed with low-salt buffer (150 mM NaCl, 25 mM HEPES, pH 7.4, 1 mM dithiothreitol [DTT], and 60 mM MgCl2), followed by high-salt buffer (1 M NaCl, 25 mM HEPES, pH 7.4, 1 mM DTT, 0.1% IGEPAL, and 60 mM MgCl2) and once again low-salt buffer to remove unbound protein. Next, the resin with bound proteins (50 μl) was transferred to a 0.2-μm polyvinylidene fluoride filter 96-well plate (Corning) sitting on top of a black flat-bottomed 96-well catch plate (Corning). […] The eluted proteins were measured in a fluorescent plate reader to detect the GFP.
# Subtle single amino acid differences are present within the catalytic clefts of these proteins, especially between residues that contact the nucleotide. […] After proteins are bound to the ATP Sepharose resin, small molecules with affinity for the ATP binding site will elute the GFP-fusion protein, which can readily be detected and quantified on a plate fluorometer. […]
# T. denticola HtpG, sequence (P61188 whole entry): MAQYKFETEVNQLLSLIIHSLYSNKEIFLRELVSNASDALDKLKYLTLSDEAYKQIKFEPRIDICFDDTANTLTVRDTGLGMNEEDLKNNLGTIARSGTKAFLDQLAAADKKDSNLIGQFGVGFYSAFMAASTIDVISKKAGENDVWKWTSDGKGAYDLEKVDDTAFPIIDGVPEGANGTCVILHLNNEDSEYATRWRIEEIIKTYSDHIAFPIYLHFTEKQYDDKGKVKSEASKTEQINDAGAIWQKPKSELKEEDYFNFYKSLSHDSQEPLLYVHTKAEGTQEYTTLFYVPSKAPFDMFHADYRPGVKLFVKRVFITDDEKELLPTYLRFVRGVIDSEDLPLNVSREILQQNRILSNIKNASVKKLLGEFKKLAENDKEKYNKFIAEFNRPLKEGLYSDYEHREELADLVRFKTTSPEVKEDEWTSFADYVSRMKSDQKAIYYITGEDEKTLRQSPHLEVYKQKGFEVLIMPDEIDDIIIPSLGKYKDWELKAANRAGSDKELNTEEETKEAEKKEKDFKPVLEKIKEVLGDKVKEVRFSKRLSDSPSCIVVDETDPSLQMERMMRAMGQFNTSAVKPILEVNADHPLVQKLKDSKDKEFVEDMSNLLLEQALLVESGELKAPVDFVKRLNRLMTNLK
smiles,measurement,setting,value
Cc1nn(-c2ccc(C(=O)N(C)C)c(NCCCOCCOCCOCCOCCOCCCNCc3ccc(C(=C\C=C4/N(CCCCS(=O)(=O)O)c5ccccc5C4(C)C)/C=C/C4=[N+](CCCCS(=O)(=O)[O-])c5ccccc5C4(C)C)cc3)c2)c2c1C(=O)CC(C)(C)C2 [HS-198],Release of T. denticola HtpG from immobilized ATP resin,[1],unable to release; also recorded: inactive
same,Release of recombinant human GFP-Hsp90α from ATP Sepharose beads,[2],did not
